According to a melting point compilation (Tetko et al.; mined from patent text by program, amines drawn as free bases though some values may be those of a salt):

melting point [°C] | Compound
116 to 117 | COc1cc2c(c(Cl)c1Cl)C(=O)C(C1CCCC1)C2 (stereo not drawn)
132 to 133 | COc1cc2c(cc1OC)C(C=Cc1ccc(Cl)c(Cl)c1)=NNC(C)C2 (stereo not drawn)
205 | CCOc1ccc2c(c1)n(C1CCCCC1)c(=O)n2S(=O)(=O)c1ccc(C(=O)O)cc1OC
74 to 75 | CCn1nc(C#Cc2ccccc2)ccc1=O
111 to 112 | COC(=O)CCCSc1c(Cc2cccc3ccccc23)sc2c1c(=O)n(C)c(=O)n2CC(C)C
192 to 193 | CC(=O)SCC1CCCCCCCSC[C@@H](C(=O)OCc2ccccc2)NC1=O (stereo partly drawn)
260 to 262 | O=c1[nH]c(=O)n2c3c1cnn3C(c1cccc(C(F)(F)F)c1)=CC2
25 to 30 | c1cn(CC2CCCCC2)cn1
226 to 227 | COC(=O)[C@H](Cc1c(Br)n(Cc2ccccc2)c2cc(Br)c(OC)c(Br)c12)NC(C)=O
142 to 143 | COc1ccc2c(c1)SC(CCBr)C(=O)N2 (stereo not drawn)
180 to 181 | BrCc1cccc(-c2cccc(CBr)n2)n1
265 to 268 | O=C(NC1CC1)c1ccc(N2CCN(Cc3cnc4c(c3)NC(=O)[C@@H]3CCCN43)CC2)cc1
179 to 181 | CC(Cc1c[nH]c2ccccc12)(NC(=O)OCC1c2ccccc2-c2ccccc21)C(=O)NCCc1ccccc1 (stereo not drawn)
98 to 100 | O=c1c2cnc(N3CCOCC3)nc2sn1CCN1CCCCC1
162 | BrCc1ccc2nc(-c3ccccc3)oc2c1
73.5 to 74 | O=C(O)CCCCCCCCCCCCC(=O)OCc1ccccc1
225 to 227 | O=C1N(Cc2cccc(O)c2)c2ccccc2C12COc1cc3c(cc12)CCO3 (stereo not drawn)
184 to 185 | Nc1ccc(F)cc1CS(=O)c1nc2ccccc2[nH]1 (stereo not drawn)
101 to 103 | CC1(C)CC(c2ccccc2)=NC1=Cc1ccccc1
45 to 47 | CCCCCCCCCCC1(CCCCCCCCCC)c2cc(Br)ccc2-c2ccc(C=O)cc21
132 to 134 | CC(C)(C)OC(=O)N[C@@H]1C(=O)N(CCOCc2ccccc2)c2ccccc2-c2ccccc21
63 to 64 | CCc1noc(-c2ncn(-c3cccc(OCc4ccccc4)c3)c2COC)n1
132 to 133 | COc1ccc(CNC(=O)N(C)O)cc1OC
59 to 61 | C=C[C@H](O)[C@@H](N)CC1CCCCC1
60 | COc1cc2c(cc1OC)C(c1ccccc1)N(C(=O)NCCN(C)C)CC2 (stereo not drawn)

melting point [°C] | Compound
193 to 195 | CCOC(=O)c1ccn2c(C(=O)c3cccc(O)c3)c(-c3ccccc3)cc2c1
248 to 250 | O=C(O)c1ccc2c(c1)S(=O)(=O)c1ccccc1CC2
137 to 140 | CC(Oc1ccc(Oc2cnc3cc(Cl)ccc3n2)cc1)C(=O)Nc1ccc(OC(F)(F)CF)cc1 (stereo not drawn)
161 to 164 | CCC1=NC(NC(=O)Nc2cccc(C)c2)C(=O)N(CC(=O)C2CCCCC2)c2c(C)cccc21 (stereo not drawn)
178 | COc1ccc(CCN2CCC(NC(=O)c3ccccc3)CC2)cc1
173 to 174 | CCOC(=O)N1C=CC(c2c(-c3ccccc3)nn3ccccc23)C=N1 (stereo not drawn)
110 | CCOC(=O)NC(=O)c1nn(-c2cc(Cl)c(C(C)(C)C#N)c(Cl)c2)c(=O)[nH]c1=O
71 to 73 | COC(=O)c1cc(N)c(C(C)(C)C)c(N)c1
107 to 108 | CCNC(=O)c1ccc(COC(=O)c2ccc(OC)c(C(C)(C)C)c2)cc1
132 to 133 | CC(C)(C)c1cc(C(O)COc2ccc(C(=O)O)c(O)c2)cc(C(C)(C)C)c1O (stereo not drawn)
215 to 216 | O=C(CCl)Nc1nc(Cl)c(-c2ccccc2)s1
104 to 106 | O=C(CC(=O)OCc1ccccc1)OCc1ccccc1
> 300 | Cn1ncc2[nH]c3ccc(Cc4cccc(C(=O)O)c4)cc3c(=O)c21
> 300 | O=[N+]([O-])c1cc2nc(O)c(O)nc2c2nsnc12
142 to 144 | CC(=NOCCO)c1ccc(-c2ccc(C)cc2)cc1
160 to 163 | Cc1nc(C)c(Cl)c(NCc2nccc(SCCOCCn3c([N+](=O)[O-])cnc3C)c2C)n1
134 to 135 | CC(C)(C)NC(=O)[C@@H]1CN(NC(=O)OC(C)(C)C)CCN1NC(=O)Cc1ccccc1
154 to 155 | N=C(Nc1ccccc1I)Nc1cccc2ccccc12
156 to 158 | N#CC(C(=O)c1ccc(Cl)cc1)=C1CCCN1
175 to 176 | CC(=O)c1ccc(Nc2cccc(-c3cccnc3)c2)c(N)c1
118 to 122 | COc1ccc(CC(C)=O)cc1S(=O)(=O)N1CCSCC1
> 230 | CC(C)NC1=NS(=O)(=O)c2cc(Cl)cc(N)c2N1
254 | O=C(Nc1ccc(-c2ccc(C(=O)N3CCN4CCC3CC4)o2)cc1)c1ccccc1
224 to 226 | Cc1ccc(C(=C/C=C/C(=O)O)c2ccc(C)cc2)cc1
71 to 72 | CCCCCCCCCCS(=O)(=O)Oc1c(I)cc(I)cc1I

melting point [°C] | Compound
181 to 182 | NNc1ncnc(Nc2ccc(F)c(C(F)(F)F)c2)n1
95 to 97 | C=C(C)C(=O)Oc1ccc(NS(C)(=O)=O)c(C)c1
260 | FC(F)(F)c1cc(-c2ccc(Cl)c(Cl)c2)nc2c(-c3ccncc3)cnn12
290 to 291 | NS(=O)(=O)c1cc2cc[nH]c(=O)c2o1
118 to 119 | COc1cc(OC)nc(NC(=O)Oc2ccccc2)n1
101 | CCCCn1c(=O)n(CCC(C)(O)C#CCN(CCC)CCC)c(=O)c2c1ncn2CCC (stereo not drawn)
150 | CC(C(=O)O)c1ccc(C(=O)c2cc3ccsc3s2)cc1 (stereo not drawn)
228 | O=C1CCC2C=C(c3cccnc3)C(F)=CC2N1 (stereo not drawn)
152 to 153 | Cc1c(C)c(-c2cccc(CO)c2)c(C)c(C)c1O
202 to 203 | O=C(Nc1ccc(-c2ccccc2)s1)c1ccccc1
156 to 157 | CC1(C)OC(=O)Nc2ccc(-c3cccc(C(=O)c4ccccc4)c3)cc21
116 | COC(=O)c1cc(O)c(O)c(S(=O)(=O)O)c1
140 | C[C@@H](Nc1ncnc2[nH]c(-c3ccc(CNC(=O)CCN4CCCCC4)cc3)cc12)c1ccccc1
76 to 78 | CCCNC(=O)C(=CN(C)C)C(=O)c1ccccc1Cl
54 to 56 | CNc1ccc(-c2nc(C)c(-c3cccnc3)[nH]2)c(OC)c1
260 to 262 | Oc1ccc(-c2nc3cc(O)c(Cl)cc3o2)cc1
122 to 123 | CC(C)N1Cc2c(Cl)nc(Cl)nc2C1=O
98 | CC(C)CCCC(C)C1CCC2C3CC=C4CC(OC(=O)C(C)(C)COP(=O)(O)OCCBr)CCC4(C)C3CCC12C (stereo not drawn)
209 to 210 | Cc1cc2c(cc1C)C(=O)C(C#N)C2=O
151 to 152 | O=S(=O)(c1ccc(Cl)cc1)C(c1ccc(CO)cn1)c1cc(F)ccc1F (stereo not drawn)
160 to 162 | CC(C)Oc1ccc(OCc2ccccc2)cc1-c1nc2cccnc2[nH]1
190 to 192 | O=C1CCC(=O)N1Cn1nnc(-c2ccnc(-c3nnn(CN4C(=O)CCC4=O)n3)c2)n1
185 to 189 | CC(C)N1CCN(Cc2ccc(NC(=O)c3cccc4cc(Oc5cc(N)ncn5)ccc34)cc2C(F)(F)F)CC1
102 to 105 | CC(=O)c1ccc2c(c1)C(c1ccccn1)CC(C)(C)O2 (stereo not drawn)
175 to 176 | O=S(=O)(c1ccccc1)N1CCC(C(Nc2ccc(F)cc2)c2ccc(F)cc2)CC1 (stereo not drawn)

melting point [°C] | Compound
191 to 193 | CS(=O)(=O)c1ccc(C(CC2CCCC2)C(=O)Nc2ccc(C(=O)O)cn2)cc1 (stereo not drawn)
149 to 152 | COc1ccc(CN2CCc3cc(O)ccc3C2)c(OC)c1
116 to 118 | COc1ccc2c(c1)CC(N(C)CCCNC(=O)Cc1cc(OC)c(OC)cc1[N+](=O)[O-])CC2 (stereo not drawn)
192 to 194 | N#CNC(=NC1CCN(Cc2ccccc2)CC1)N1CCc2ccccc2CC1
271 to 272 | O=[N+]([O-])c1ccc(NN=Cc2cnccn2)nc1
194 | Cc1nn2c(=O)c(CCN3CCC(n4ccc5cc(F)ccc54)CC3)c(C)nc2s1
150 | COc1ccc(-c2c[nH]c(=S)n2O)cc1
65 | O=Cc1cnc(Cl)c(Cl)c1
98 to 99 | CC1(COc2c(-c3ccc(S(C)(=O)=O)cc3)cnn(CC(F)(F)F)c2=O)CC1
> 300 | COc1ccc(C(=O)Nc2nc3cc4c(cc3[nH]2)NC(=O)C4(C)C)cc1
212 to 213 | CCOC(=O)c1cc(C#N)c(C)nc1O
135 to 138 | Nc1nc(NCCC2=CCCCC2)nc2c1ncn2C1OC(CO)C(O)C1O (stereo not drawn)
170 to 172 | CC(=O)Nc1ccc(OC(C)C(=O)O)cc1 (stereo not drawn)
178 to 180 | O=C1CCC(N2Cc3c(OCc4ccc(CN5CCC(C(F)(F)F)CC5)cc4)cccc3C2=O)C(=O)N1 (stereo not drawn)
70.5 to 72.5 | Cc1oncc1C(=O)N1CCC(O)CC1
176 to 178 | CCCc1nc2c(N)nc3cc(Br)ccc3c2n1CCCONC(=O)C(C)C
101 to 102 | CCCCCCCCCCCCCCCCCc1cc(O)c(CC)c(=O)o1
141 | O=C1OC(c2ccccc2)=CC1=Cc1cccs1
145 to 146 | Cc1ccc(-c2nc3ccc(CN4CCN(C)CC4)cc3[nH]2)cc1C#Cc1ccc(NC2CC2)nn1
165 to 167 | NC(=NCC(F)(F)F)Nc1cncc(SCCCC(=O)Nc2ccccc2)n1
140 to 141 | COc1c(C)cnc(CS(=O)c2nc3ccccc3n2CCl)c1C (stereo not drawn)
119 to 120 | CCCCCCCC[C@@H](O)C(=O)Nc1cccc2nc(SC)ccc12
94 to 96 | CCOC(=O)C(O)=Cc1ccc(Cc2ccc(F)cc2)cn1

Compound | melting point [°C]
COc1ccc2c3c(c4cc(OC)c(OC)cc4c2c1)CC1CCCCN1C3 (stereo not drawn) | 193 to 195
[N-]=[N+]=Nc1nc(N=[N+]=[N-])nc(-c2ccccc2)n1 | 130 to 132
O=C1c2c(Cl)cccc2-n2cnc(-c3nc(C4CC4)no3)c2[C@@H]2CCCN12 | 213 to 214
CON=C1CCC(C)(C)c2cc(C)c(-c3cc(C=C4SC(=O)NC4=O)ccc3Cl)cc21 | 252 to 254
O=C1CN=C(c2ccccc2)c2ccccc2N1CC(F)(F)F | 130 to 131
